System: diarrhea-predominant IBS subjects
Assay: Study S241.3.009: weekly diary questions on adequate relief
Type: in vivo, human
Conditions: 2 mg TID, ITT; for Number of months a subject was a responder during Months 1 to 3: IBS symptoms, One month / Number of months a subject was a responder during Months 1 to 3: IBS symptoms, Three months / Number of months a subject was a responder during Months 1 to 3: IBS symptoms, Two months / Number of months a subject was a responder during Months 1 to 3: IBS symptoms, Zero months / Number of months a subject was a responder during Months 1 to 3: Abdominal pain/discomfort, One month / Number of months a subject was a responder during Months 1 to 3: Abdominal pain/discomfort, Three months / Number of months a subject was a responder during Months 1 to 3: Abdominal pain/discomfort, Two months / Number of months a subject was a responder during Months 1 to 3: Abdominal pain/discomfort, Zero months / Number of months a subject was a responder during Months 1 to 3: Abnormal bowel habits, One month / Number of months a subject was a responder during Months 1 to 3: Abnormal bowel habits, Three months / Number of months a subject was a responder during Months 1 to 3: Abnormal bowel habits, Two months / Number of months a subject was a responder during Months 1 to 3: Abnormal bowel habits, Zero months / Responder rate, adequate relief of IBS symptoms / Responder rate, adequate relief of abdominal pain/discomfort / Responder rate, adequate relief of abnormal bowel habits: monthly LOCF imputation; for Number of subjects who were responders during the 26-week treatment period: Adequate relief of IBS symptoms / Number of subjects who were responders during the 26-week treatment period: Adequate relief of abdominal pain/discomfort / Number of subjects who were responders during the 26-week treatment period: Adequate relief of abnormal bowel habits: observed case
Protocol: Study S241.3.009 was a Phase III, a double-blind, placebo-controlled, randomized, multinational study to investigate the safety and efficacy of 2 mg TID of cilansetron over 26 weeks in diarrhea-predominant IBS subjects. The study was conducted in 146 multinational study centers. A total of 1307 subjects consented to participate, and 806 subjects were randomized. A total of 792 subjects were analyzed for efficacy and 799 subjects were analyzed for safety. Diagnosis and main criteria for inclusion were IBS subjects satisfying the Rome I criteria (1992); the diarrhea-predominant sub-population of the Rome II criteria; and a minimum abdominal pain/discomfort, stool frequency and consistency determined during the run-in period. Subjects were treated with cilansetron 2 mg tablets given orally TID or matching placebo tablets given orally TID for 26 weeks.
The primary efficacy parameter was the overall response rate for IBS symptoms, based on the weekly question concerning adequate relief of IBS symptoms (abdominal pain/discomfort, abnormal bowel habits) over the 26 weeks period. A responder was a subject who responded “yes” at least 50% of the time during his/her treatment period, with minimum treatment duration of four weeks. The two main secondary efficacy parameters were overall responder rate based on the weekly question on adequate relief of abdominal pain/discomfort and abnormal bowel habits during the 26-week treatment period. The onset of action of cilansetron was also examined using daily diary data (stool frequency, and ratings of urgency and severity) during the initial 8 weeks of trial participation. An additional key secondary efficacy parameter was the number of months (one month equals four weeks) up to six months (24-weeks) that a subject was a responder for IBS symptoms, where a responder was defined as a subject who answered the weekly question with “yes” at least twice for that month. The responder rate for the weekly diary questions on adequate relief at each month and all months, the adequate relief rate, the number of subjects with adequate relief by week, daily diary questions, IBS-QOL scores, and the interruption of activities were also assessed. Safety was evaluated by physical examination, ECG, vital signs, laboratory evaluations, concomitant medications, and AEs.
Studies S24 1.3.OO6, S24 1.3.0 1 1, and S24 1.3.009 used the following efficacy measurements: • The subjects answered the following three questions with “yes” or “no” using a phone diary at the end of each week: • a) During the last week, did you experience adequate relief of your IBS symptoms, such as abdominal pain, abdominal discomfort, abnormal bowel habits? • b) During the last week, did you experience adequate relief of your abdominal pain and/or discomfort? • c) During the last week, did you experience adequate relief of your abnormal bowel habits? • The subjects rated the following symptoms using the phone diary at the end of each day: • abdominal pain/discomfort (five-point scale); • stool consistency (seven-point Bristol Stool Scale); • stool frequency (number of bowel movements each day); • urgency (five-point scale); • straining (yes or no); • feeling of incomplete defecation (yes or no); • bloating or feeling of abdominal distension (five-point scale). • In Studies S241 A006 and S241.3.009, subjects completed the IBS-QOL Survey at Baseline (Day 1) and at the end of treatment. In Study S24 1.3.0 1 1, subjects completed the IBS-QOL Survey at Baseline (Day 1), at the end of the three-month treatment period, and at the end of rerandomized treatment.
In all three pivotal efficacy studies, the primary and main secondary efficacy parameters were based on the weekly diary questions on adequate relief and included the following: • 1. Number of months (one month equals four weeks) that a subject was a responder for the weekly diary questions on adequate relief. […]

[1] = Duration of IBS: >24 months to ≦48 months
[2] = Duration of IBS: >48 months to ≦120 months

Question: For Cc1nccn1C[C@H]1CCc2c(c3cccc4c3n2CCC4)C1=O [Cilansetron, (R)-(−)-4,5,6,8,9,10-hexahydro-10-[(2-methyl-1H-imidazol-1-yl)methyl]-11H-pyrido-[3,2,1-jk]-carbazol-11-one], which “Number of months a subject was a responder during Months 1 to 3: IBS symptoms, One month” value (shortened to “Number … IBS symptoms, One month”) [1] is on record?
Answer: 9 (9) n (%)

Question: And the “Number of months a subject was a responder during Months 1 to 3: IBS symptoms, Three months” value (“Number … IBS symptoms, Three months” for short) [1]?
Answer: 35 (36) n (%)

Question: And the “Number of months a subject was a responder during Months 1 to 3: IBS symptoms, Two months” value (shortened to “Number … IBS symptoms, Two months”) [1]?
Answer: 21 (22) n (%)

Question: What about the “Number of months a subject was a responder during Months 1 to 3: IBS symptoms, Zero months” value (from here on “Number … IBS symptoms, Zero months”) [1] of the same compound?
Answer: 31 (32) n (%)

Question: What about the “Number of subjects who were responders during the 26-week treatment period: Adequate relief of IBS symptoms” value (from here on “Number … of IBS symptoms”) [1] of the same compound?
Answer: 56 (58) n (%)

Question: And the “Number of subjects who were responders during the 26-week treatment period: Adequate relief of abdominal pain/discomfort” value (shortened to “Number … of abdominal pain/discomfort”) [1]?
Answer: 60 (63) n (%)

Question: And the “Number of subjects who were responders during the 26-week treatment period: Adequate relief of abnormal bowel habits” value (“Number … of abnormal bowel habits” for short) [1]?
Answer: 63 (66) n (%)

Question: And the “Number of months a subject was a responder during Months 1 to 3: Abdominal pain/discomfort, One month” value (“Number … Abdominal pain/discomfort, One month” below) [2]?
Answer: 21 (16) n (%)

Question: And the “Number of months a subject was a responder during Months 1 to 3: Abdominal pain/discomfort, Three months” value (“Number … Abdominal pain/discomfort, Three months” for short) [2]?
Answer: 45 (34) n (%)

Question: What about the “Number of months a subject was a responder during Months 1 to 3: Abdominal pain/discomfort, Two months” value (“Number … Abdominal pain/discomfort, Two months” for short) [2] of the same compound?
Answer: 23 (18) n (%)

Question: What about the “Number of months a subject was a responder during Months 1 to 3: Abdominal pain/discomfort, Zero months” value (shortened to “Number … Abdominal pain/discomfort, Zero months”) [2] of the same compound?
Answer: 42 (32) n (%)

Question: What about the “Number of months a subject was a responder during Months 1 to 3: Abnormal bowel habits, One month” value (“Number … Abnormal bowel habits, One month” for short) [2] of the same compound?
Answer: 19 (15) n (%)

Question: What about the “Number of months a subject was a responder during Months 1 to 3: Abnormal bowel habits, Three months” value (from here on “Number … Abnormal bowel habits, Three months”) [2] of the same compound?
Answer: 51 (39) n (%)

Question: And the “Number of months a subject was a responder during Months 1 to 3: Abnormal bowel habits, Two months” value (“Number … Abnormal bowel habits, Two months” for short) [2]?
Answer: 26 (20) n (%)

Question: And the “Number of months a subject was a responder during Months 1 to 3: Abnormal bowel habits, Zero months” value (shortened to “Number … Abnormal bowel habits, Zero months”) [2]?
Answer: 35 (27) n (%)

Question: What about the “Number … IBS symptoms, One month” value [2] of the same compound?
Answer: 16 (12) n (%)

Question: What about the “Number … IBS symptoms, Three months” value [2] of the same compound?
Answer: 46 (35) n (%)

Question: And the “Number … IBS symptoms, Two months” value [2]?
Answer: 28 (21) n (%)

Question: And the “Number … IBS symptoms, Zero months” value [2]?
Answer: 41 (31) n (%)

Question: What about the “Number … of IBS symptoms” value [2] of the same compound?
Answer: 72 (55) n (%)

Question: What about the “Number … of abdominal pain/discomfort” value [2] of the same compound?
Answer: 68 (52) n (%)

Question: What about the “Number … of abnormal bowel habits” value [2] of the same compound?
Answer: 79 (60) n (%)

Question: What about the “Number … Abdominal pain/discomfort, One month” value (Duration of IBS: >120 months) of the same compound?
Answer: 15 (21) n (%)

Question: What about the “Number … Abdominal pain/discomfort, Three months” value (Duration of IBS: >120 months) of the same compound?
Answer: 22 (31) n (%)

Question: And the “Number … Abdominal pain/discomfort, Two months” value (Duration of IBS: >120 months)?
Answer: 15 (21) n (%)

Question: What about the “Number … Abdominal pain/discomfort, Zero months” value (Duration of IBS: >120 months) of the same compound?
Answer: 20 (28) n (%)

Question: What about the “Number … Abnormal bowel habits, One month” value (Duration of IBS: >120 months) of the same compound?
Answer: 10 (14) n (%)

Question: What about the “Number … Abnormal bowel habits, Three months” value (Duration of IBS: >120 months) of the same compound?
Answer: 27 (38) n (%)

Question: What about the “Number … Abnormal bowel habits, Two months” value (Duration of IBS: >120 months) of the same compound?
Answer: 14 (19) n (%)

Question: What about the “Number … Abnormal bowel habits, Zero months” value (Duration of IBS: >120 months) of the same compound?
Answer: 21 (29) n (%)

Question: What about the “Number … IBS symptoms, One month” value (Duration of IBS: >120 months) of the same compound?
Answer: 14 (19) n (%)

Question: What about the “Number … IBS symptoms, Three months” value (Duration of IBS: >120 months) of the same compound?
Answer: 23 (32) n (%)

Question: And the “Number … IBS symptoms, Two months” value (Duration of IBS: >120 months)?
Answer: 15 (21) n (%)

Question: What about the “Number … IBS symptoms, Zero months” value (Duration of IBS: >120 months) of the same compound?
Answer: 20 (28) n (%)

Question: And the “Number … of IBS symptoms” value (Duration of IBS: >120 months)?
Answer: 40 (56) n (%)

Question: What about the “Number … of abdominal pain/discomfort” value (Duration of IBS: >120 months) of the same compound?
Answer: 41 (57) n (%)

Question: What about the “Number … of abnormal bowel habits” value (Duration of IBS: >120 months) of the same compound?
Answer: 42 (58) n (%)

Question: And the “Number … Abdominal pain/discomfort, One month” value (Duration of IBS: ≦24 months)?
Answer: 11 (11) n (%)

Question: And the “Number … Abdominal pain/discomfort, Three months” value (Duration of IBS: ≦24 months)?
Answer: 55 (57) n (%)

Question: And the “Number … Abdominal pain/discomfort, Two months” value (Duration of IBS: ≦24 months)?
Answer: 13 (14) n (%)

Question: And the “Number … Abdominal pain/discomfort, Zero months” value (Duration of IBS: ≦24 months)?
Answer: 17 (18) n (%)

Question: And the “Number … Abnormal bowel habits, One month” value (Duration of IBS: ≦24 months)?
Answer: 9 (9) n (%)

Question: What about the “Number … Abnormal bowel habits, Three months” value (Duration of IBS: ≦24 months) of the same compound?
Answer: 51 (53) n (%)

Question: And the “Number … Abnormal bowel habits, Two months” value (Duration of IBS: ≦24 months)?
Answer: 18 (19) n (%)

Question: And the “Number … Abnormal bowel habits, Zero months” value (Duration of IBS: ≦24 months)?
Answer: 18 (19) n (%)

Question: What about the “Number … IBS symptoms, One month” value (Duration of IBS: ≦24 months) of the same compound?
Answer: 16 (17) n (%)

Question: What about the “Number … IBS symptoms, Three months” value (Duration of IBS: ≦24 months) of the same compound?
Answer: 46 (48) n (%)

Question: What about the “Number … IBS symptoms, Two months” value (Duration of IBS: ≦24 months) of the same compound?
Answer: 16 (17) n (%)

Question: What about the “Number … IBS symptoms, Zero months” value (Duration of IBS: ≦24 months) of the same compound?
Answer: 18 (19) n (%)

Question: What about the “Number … of IBS symptoms” value (Duration of IBS: ≦24 months) of the same compound?
Answer: 66 (69) n (%)

Question: What about the “Number … of abdominal pain/discomfort” value (Duration of IBS: ≦24 months) of the same compound?
Answer: 70 (73) n (%)

Question: What about the “Number … of abnormal bowel habits” value (Duration of IBS: ≦24 months) of the same compound?
Answer: 69 (72) n (%)

Question: What about the “Responder rate, adequate relief of IBS symptoms” value (“Responder rate … of IBS symptoms” for short) (Each month of Months 1 to 3) of the same compound?
Answer: 150 (38) n (%)

Question: And the “Responder rate, adequate relief of abdominal pain/discomfort” value (Each month of Months 1 to 3)?
Answer: 159 (40) n (%)

Question: And the “Responder rate, adequate relief of abnormal bowel habits” value (Each month of Months 1 to 3)?
Answer: 165 (42) n (%)

Question: And the “Responder rate … of IBS symptoms” value (Each month of Months 1 to 6)?
Answer: 121 (31) n (%)

Question: And the “Responder rate, adequate relief of abdominal pain/discomfort” value (Each month of Months 1 to 6)?
Answer: 133 (34) n (%)

Question: What about the “Responder rate, adequate relief of abnormal bowel habits” value (Each month of Months 1 to 6) of the same compound?
Answer: 136 (34) n (%)

Question: What about the “Responder rate … of IBS symptoms” value (Each month of Months 4 to 6) of the same compound?
Answer: 193 (49) n (%)

Question: And the “Responder rate, adequate relief of abdominal pain/discomfort” value (Each month of Months 4 to 6)?
Answer: 202 (51) n (%)

— patent US20090176817A1, “Method of Treatment of Diarrhea-Predominant Irritable Bowel Syndrome in a Subject” (priority 2005, published 2009)
